Assay: Solubility of compound in solvent
Assay type: physicochemical
Design: key: Good: represents that the compound was completely dissolved; Poor: represents that an insoluble matter remained
Conditions: 40° C., after 30 minutes, visual
Protocol: With regard to various solvents, a specific amount of compound (1-1-1-1) was added to various solvents each, and the resulting mixture was warmed in warm water at 40° C., and an aspect after 30 minutes was visually confirmed. A similar method was tried in compound (1-1-2-1), compound (C-1) and compound (C-2) in place of compound (1-1-1-1).
An amount of the compound added as described in Table 4 is expressed in terms of a relative value when a total weight of the solvent and the compound is taken as 100% by weight. A term “Good” in Table 4 represents that the compound was completely dissolved, and a term “Poor” in Table 4 represents that an insoluble matter remained.

solubility in 4-methyl-2-pentanone (15% by weight of compound) | solubility in cyclohexanone (15% by weight of compound) | solubility in methoxybenzene (15% by weight of compound) | solubility in 4-methyl-2-pentanone (30% by weight of compound) | solubility in cyclohexanone (30% by weight of compound) | solubility in methoxybenzene (30% by weight of compound) | SMILES | solubility in 2-acetoxy-1-methoxypropane (15% by weight of compound) | solubility in 2-acetoxy-1-methoxypropane (30% by weight of compound)
Poor | Good | Good | Poor | Good | Good | C=CC(=O)OCCCCCCOc1ccc(CCC(=O)O[C@H]2CC[C@H](C(=O)Oc3ccc(OC(=O)[C@H]4CC[C@H](OC(=O)CCc5ccc(OCCCCCCOC(=O)C=C)cc5)CC4)c4nc(-c5ccccc5)cnc34)CC2)cc1 [Compound (1-1-1-1)] | Poor | Poor
Good | Good | Good | Poor | Good | Good | C=CC(=O)OCCCCCCOc1ccc(CCC(=O)O[C@H]2CC[C@H](C(=O)Oc3ccc(OC(=O)[C@H]4CC[C@H](OC(=O)CCc5ccc(OCCCCCCOC(=O)C=C)cc5)CC4)c4nc(-c5ccccc5)c(C)nc34)CC2)cc1 [Compound (1-1-2-1)] | Good | Poor
Poor | Good | Good | Poor | Poor | Poor | C=CC(=O)OCCCCOc1ccc(OC(=O)[C@H]2CC[C@H](C(=O)Oc3ccc(OC(=O)[C@H]4CC[C@H](C(=O)Oc5ccc(OCCCCOC(=O)C=C)cc5)CC4)c4sc(-c5ccccc5)nc34)CC2)cc1 [Compound (C-1)] | Poor | Poor
Poor | Good | Good | Poor | Poor | Poor | C=CC(=O)OCCCCOc1ccc(OC(=O)C2CCC(C(=O)Oc3ccc(OC(=O)C4CCC(C(=O)Oc5ccc(OCCCCOC(=O)C=C)cc5)CC4)c(C=NNc4nc5ccccc5s4)c3)CC2)cc1 (centres unmarked) [Compound (C-2)] | Poor | Poor

From patent US10581022B2, “Polymerizable liquid crystal compound, composition, liquid crystal polymerization film-kind thereof and use thereof” (JNC CORPORATION, priority 2015, dated 2020)
